# Laboratory results taken from paper PMC5454922, “Interaction of Biliverdin Chromophore with Near-Infrared Fluorescent Protein BphP1-FP Engineered from Bacterial Phytochrome” (International Journal of Molecular Sciences, 2017).
# What was measured:
# Assay type in all cases: binding
# BphP1-FP [1] = molecular target: T1, BphP1-FP (Rhodopseudomonas palustris, UniProt A0A161I5N6, C19S/I252C, form not given); assay: zinc-induced fluorescence on SDS-PAGE; absorption and fluorescence spectroscopy; conditions: covalent, to Cys256 (GAF) only; otherwise same
# T1 construct: engineered near-infrared fluorescent protein from PAS-GAF (CBD) of RpBphP1, lacks PHY and effector domains; N-terminal polyhistidine tag (pBAD/His-B); E. coli LMG194 with heme oxygenase; monomer, about 35 kDa
# T1 sequence (A0A161I5N6 1-314 C19S/I252C limits assumed): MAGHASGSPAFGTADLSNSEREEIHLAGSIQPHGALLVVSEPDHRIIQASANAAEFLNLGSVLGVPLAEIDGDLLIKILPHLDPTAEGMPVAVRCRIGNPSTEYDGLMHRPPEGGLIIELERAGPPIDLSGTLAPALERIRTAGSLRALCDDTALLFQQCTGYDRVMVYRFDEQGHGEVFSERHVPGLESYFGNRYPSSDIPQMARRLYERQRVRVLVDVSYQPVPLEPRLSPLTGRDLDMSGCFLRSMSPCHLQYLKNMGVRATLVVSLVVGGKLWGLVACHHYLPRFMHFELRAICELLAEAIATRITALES
# BphP1-FP [2] = molecular target: T2, BphP1-FP (Rhodopseudomonas palustris, UniProt A0A161I5N6, I252C, form not given); assay: as above; conditions: covalent, to Cys256 (GAF) and partly also Cys15 (PAS); co-expressed heme oxygenase supplies BV; 20 mM Tris/HCl pH 8.0, 1 mM TCEP
# T2 construct: engineered near-infrared fluorescent protein from PAS-GAF (CBD) of RpBphP1, lacks PHY and effector domains; N-terminal polyhistidine tag (pBAD/His-B); E. coli LMG194 with heme oxygenase; monomer, about 35 kDa
# T2 sequence (A0A161I5N6 1-314 I252C limits assumed): as the sequence (A0A161I5N6 1-314 C19S/I252C limits assumed) above, with S19C counted along it
# BphP1-FP [3] = molecular target: T3, BphP1-FP (Rhodopseudomonas palustris, UniProt A0A161I5N6, C19S, form not given); assay: absorption and fluorescence spectroscopy of purified holoprotein; conditions: non-covalent (no reactive Cys); otherwise same
# T3 construct: engineered near-infrared fluorescent protein from PAS-GAF (CBD) of RpBphP1, lacks PHY and effector domains; N-terminal polyhistidine tag (pBAD/His-B); E. coli LMG194 with heme oxygenase; monomer, about 35 kDa
# T3 sequence (A0A161I5N6 1-314 C19S limits assumed): as the sequence (A0A161I5N6 1-314 C19S/I252C limits assumed) above, with C252I counted along it
smiles,measurement,setting,value
"C=CC1=C(C)C(=Cc2[nH]c(C=C3N=C(C=C4NC(=O)C(C)=C4C=C)C(C)=C3CCC(=O)O)c(CCC(=O)O)c2C)NC1=O [BV, biliverdin]",zinc-induced fluorescence on SDS-PAGE; absorption and fluorescence spectroscopy,BphP1-FP [1],there was no non-covalently bound BV in BphP1-FP/C15S
same,zinc-induced fluorescence on SDS-PAGE; absorption and fluorescence spectroscopy,BphP1-FP [2],"The zinc-staining assay confirmed the covalent binding of the BV chromophore in BphP1-FP, BphP1-FP/C256I"
same,absorption and fluorescence spectroscopy of purified holoprotein,BphP1-FP [3],Absorption and fluorescence spectra of BphP1-FP/C15S/C256I mutant without Cys15 and Cys256 residues
